Each compound was assayed against T1, Human orexin receptor type 2 (Homo sapiens, UniProt O43614) (assay: Test Example 2: agonist activity for orexin receptor type 2 (aequorin luminescence, intracellular calcium mobilization in CHO cells)). Conditions: compound 10 μM; relative percentage of luminescence for the luminescence (100%) of Orexin A (100 μM); CHO cells transiently expressing human orexin receptor type 2 and apoaequorin.
T1 construct: expressed in transfected cells; host or cells: CHO cells (transient expression, with apoaequorin)
T1 sequence (O43614 1-444): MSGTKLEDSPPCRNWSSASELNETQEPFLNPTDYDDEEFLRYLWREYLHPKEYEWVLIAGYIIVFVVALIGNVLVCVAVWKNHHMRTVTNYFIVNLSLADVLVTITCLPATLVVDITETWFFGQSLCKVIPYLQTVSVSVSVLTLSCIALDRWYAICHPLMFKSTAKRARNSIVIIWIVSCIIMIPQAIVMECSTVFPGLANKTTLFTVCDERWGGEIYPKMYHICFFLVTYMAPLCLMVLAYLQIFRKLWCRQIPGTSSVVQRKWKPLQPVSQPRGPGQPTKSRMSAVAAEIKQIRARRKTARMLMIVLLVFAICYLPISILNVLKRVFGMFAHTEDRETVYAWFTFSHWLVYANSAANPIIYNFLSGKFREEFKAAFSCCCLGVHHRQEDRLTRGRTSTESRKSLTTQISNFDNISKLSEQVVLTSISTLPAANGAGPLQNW
Assay type: cell-based
Protocol: Test Example 2: Measurement of Agonist Activity for Orexin Receptor Type 2
Human orexin receptor type 2 and apoaequorin were transiently expressed in CHO cells, and the agonist activity was evaluated based on intracellular calcium mobilization with ligand stimulation. The CHO cells transiently-expressed human orexin receptor type 2 and apoaequorin were seeded on a 384-well plate by 2,000 cells/well, and then incubated for 16-22 hours. After the plate was returned to room temperature, Coelenterazine hcp (final concentration: 1 μM) was added to the plate, and the plate was allowed to stand at room temperature for 2 hours. And then, Orexin A (PEPTIDE INSTITUTE, INC., Lot. 711101) or each test compound was added to the plate, and the luminescence of the cells was measured with FDSS7000 (Hamamatsu Photonics K.K.), wherein Orexin A and each test compound were dissolved in DMSO (final concentration: 0.1%), and diluted with a buffer (Hanks, 20 mM HEPES, 0.1% BSA). The agonist activity of each test compound for orexin receptor type 2 was calculated as relative percentage of luminescence for the luminescence (100%) of Orexin A (100 μM).
Each agonist activity of the compounds obtained in Examples (10 μM) for orexin receptor type 2 is shown in the table below as relative percentage of luminescence for the luminescence (100%) of Orexin A (100 μM).

SMILES | Agonist Activity (%)
CC(C)N1CC[C@H](O[C@H]2CCCC(F)(F)[C@@H]2NC(=O)N2C[C@@H]3CN(c4ccccc4)C[C@@H]3C2)C1 [Example 29, (3aR,6aS)—N-[(1R,6S)-2,2-difluoro-6-{[(3S)-1-(propan-2-yl)pyrrolidin-3-yl]oxy}cyclohexyl]-5-phenylhexahydropyrrolo[3,4-c]pyrrole-2(1H)-carboxamide] | 393%
CC(C)N1CC[C@H](N(C)[C@H]2CCCC(F)(F)[C@@H]2NC(=O)N2C[C@H]3CC(c4ccccc4)C[C@H]3C2)C1 (stereo partly drawn) [Example 33, (3aR,5R,6aS)—N-[(1R,6S)-2,2-difluoro-6-{methyl[(3S)-1-(propan-2-yl)pyrrolidin-3-yl]amino}cyclohexyl]-5-phenylhexahydropenta[c]pyrrole-2(1H)-carboxamide] | 343%
Cc1nc(C2C[C@@H]3CN(C(=O)N[C@@H]4[C@@H](N(C)[C@H]5CCN(C(C)C)C5)CCCC4(F)F)C[C@@H]3C2)no1 (stereo partly drawn) [Example 31, (3aR,5R,6aS)—N-[(1R,6S)-2,2-difluoro-6-{methyl[(3S)-1-(propan-2-yl)pyrrolidin-3-yl]amino}cyclohexyl]-5-(5-methyl-1,2,4-oxadiazol-3-yl)hexahydropenta[c]pyrrole-2(1H)-carboxamide] | 252%
Cc1nc([C@@H]2C[C@@H]3CN(C(=O)N[C@@H]4[C@@H](N5CCN(C(C)C)CC5)CCCC4(F)F)C[C@@H]3C2)no1 [Example 30, (3aR,5R,6aS)—N-{(1R,6S)-2,2-difluoro-6-[4-(propan-2-yl)piperazin-1-yl]cyclohexyl}-5-(5-methyl-1,2,4-oxadiazol-3-yl)hexahydropenta[c]pyrrole-2(1H)-carboxamide] | 374%
CC(C)N1CC[C@H](O[C@H]2CCCC(F)(F)[C@@H]2NC(=O)N2C[C@H]3CC(c4ccccc4)C[C@H]3C2)C1 (stereo partly drawn) [Example 28, (3aR,5R,6aS)—N-[(1R,6S)-2,2-difluoro-6-{[(3S)-1-(propan-2-yl)pyrrolidin-3-yl]oxy}cyclohexyl]-5-phenylhexahydropenta[c]pyrrole-2(1H)-carboxamide] | 400%
CC(C)N1CCN([C@H]2CCCC(F)(F)[C@@H]2NC(=O)N2C[C@@H]3CN(c4ccccn4)C[C@@H]3C2)CC1 [Example 20, (3aR,6aS)—N-{(1R,6S)-2,2-difluoro-6-[4-(propan-2-yl)piperazin-1-yl]cyclohexyl}-5-(pyridin-2-yl)hexahydropyrrolo[3,4-c]pyrrole-2(1H)-carboxamide] | 345%
CC(C)N1CCN([C@H]2CCCC(F)(F)[C@@H]2NC(=O)N2C[C@@H]3CN(c4ccccc4F)C[C@@H]3C2)CC1 [Example 19, (3aR,6aS)—N-{(1R,6S)-2,2-difluoro-6-[4-(propan-2-yl)piperazin-1-yl]cyclohexyl}-5-(2-fluorophenyl)hexahydropyrrolo[3,4-c]pyrrole-2(1H)-carboxamide] | 390%
Cc1nc(C2C[C@H]3CC(C(=O)N[C@@H]4[C@@H](O[C@H]5CCN(C(C)C)C5)CCCC4(F)F)C[C@H]3C2)no1 (stereo partly drawn) [Example 32, (3aR,5R,6aS)—N-[(1R,6S)-2,2-difluoro-6-{[(3S)-1-(propan-2-yl)pyrrolidin-3-yl]oxy}cyclohexyl]-5-(5-methyl-1,2,4-oxadiazol-3-yl)hexahydropenta[c]pyrrole-2(1H)-carboxamide] | 345%
Cc1ccc(N2C[C@H]3CN(C(=O)N[C@@H]4[C@@H](N5CCN(C(C)C)CC5)CCCC4(F)F)C[C@H]3C2)cc1 [Example 23, (3aR,6aS)—N-{(1R,6S)-2,2-difluoro-6-[4-(propan-2-yl)piperazin-1-yl]cyclohexyl}-5-(4-methylphenyl)hexahydropyrrolo[3,4-c]pyrrole-2(1H)-carboxamide] | 404%
Cc1cccc([C@@H]2C[C@@H]3CN(C(=O)N[C@@H]4[C@@H](N5CCN(C(C)C)CC5)CCCC4(F)F)C[C@@H]3C2)c1 [Example 24, (3aR,5R,6aS)—N-{(1R,6S)-2,2-difluoro-6-[4-(propan-2-yl)piperazin-1-yl]cyclohexyl}-5-(3-methylphenyl)hexahydropenta[c]pyrrole-2(1H)-carboxamide] | 414%
CC(C)N1CCN([C@H]2CCCC(F)(F)[C@@H]2NC(=O)N2C[C@@H]3CN(c4cccc(F)c4)C[C@@H]3C2)CC1 [Example 22, (3aR,6aS)—N-{(1R,6S)-2,2-difluoro-6-[4-(propan-2-yl)piperazin-1-yl]cyclohexyl}-5-(3-fluorophenyl)hexahydropyrrolo[3,4-c]pyrrole-2(1H)-carboxamide] | 399%

Source: patent publication US20260265235A1, “BICYCLOAMINE CARBOXAMIDE DERIVATIVE” (Sumitomo Pharma Co., Ltd., priority 2022, published 2026)
